Data set [1] concerns the target T1, Serine/threonine-protein kinase PAK 4 (Homo sapiens, UniProt O96013). The data set is described as follows: Inhibition of PAK4 (unknown origin) using lipid substrate incubated for 40 mins in presence of ATP by ADP-Glo plus luminescence kinase assay. (In general: ADP-Glo turns the ADP formed in a reaction into a luminescent signal.)
Target sequence in this assay (O96013 whole entry): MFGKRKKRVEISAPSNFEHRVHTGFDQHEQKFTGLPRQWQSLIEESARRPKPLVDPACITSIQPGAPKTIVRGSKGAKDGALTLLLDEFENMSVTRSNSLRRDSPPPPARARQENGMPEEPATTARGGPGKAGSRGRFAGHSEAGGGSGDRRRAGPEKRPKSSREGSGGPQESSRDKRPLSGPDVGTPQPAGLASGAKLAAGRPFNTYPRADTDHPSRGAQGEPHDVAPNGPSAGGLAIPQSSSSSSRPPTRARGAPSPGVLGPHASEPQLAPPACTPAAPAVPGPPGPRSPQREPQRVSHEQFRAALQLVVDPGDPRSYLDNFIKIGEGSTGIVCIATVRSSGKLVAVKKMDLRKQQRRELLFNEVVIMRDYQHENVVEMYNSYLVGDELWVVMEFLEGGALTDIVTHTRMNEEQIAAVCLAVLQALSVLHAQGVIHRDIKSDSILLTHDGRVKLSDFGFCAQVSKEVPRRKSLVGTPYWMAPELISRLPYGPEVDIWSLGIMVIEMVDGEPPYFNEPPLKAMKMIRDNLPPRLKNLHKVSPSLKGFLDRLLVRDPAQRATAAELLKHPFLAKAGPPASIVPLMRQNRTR
Data set [2] concerns the target T1, Serine/threonine-protein kinase PAK 4. The data set is described as follows: Inhibition of PAK4 (unknown origin) using lipid substrate at 100 nM incubated for 40 mins in presence of ATP by ADP-Glo plus luminescence kinase assay relative to control.
Target sequence in this assay (O96013 whole entry, looked up): as the sequence (O96013 whole entry) above
Data set [3] has as its system A549. The data set is described as follows: Antiproliferative activity against human A549 cells assessed as inhibition of cell growth incubated for 72 hrs by CCK8 assay. Conditions: A549, 72 h. In kind it is functional, cell-based. Background: Formazan colour is commonly taken as a measure of viable cells.
The nature of data set [4]: Antiproliferative activity against HEK293T cells assessed as inhibition of cell growth incubated for 24 hrs by CCK8 assay. To be noted: human. It counts as toxicity, cell-based, HEK-293T.
The test system of data set [5] is A549. Briefly: cells. To be noted: Homo sapiens, A549, 24 h.
Data set [6] has as its system A549. Briefly: Induction of apoptosis in human A549 cells assessed as viable cells at 0.5 uM measured after 24 hrs by AnnexinV FITC/propidium iodide staining based flow cytometry method (reference value: 98.7 %). It counts as functional. Conditions: read-out: Activity.
Data set [7] relates to A549. Briefly: Induction of apoptosis in human A549 cells assessed as early apoptotic cells at 1 uM measured after 24 hrs by AnnexinV-FITC/propidium iodide staining based flow cytometry method (reference value: 0.049 %). In kind it is functional. (Flow cytometry measures light scatter and fluorescence of single cells or particles in a stream.)
Data set [8] concerns A549. Briefly: Induction of cell cycle arrest in human A549 cells assessed as accumulation of G2 phase cells at 0.5 uM measured for 24 hrs by PI staining based flow cytometric analysis (reference value: 32.4 % ). In kind it is functional.
For data set [9], the system named is A549. Briefly: Induction of cell cycle arrest in human A549 cells assessed as accumulation of G1 phase cells at 0.5 uM measured for 24 hrs by PI staining based flow cytometric analysis (reference value: 27.5 % ). It counts as functional.
The test system of data set [10] is A549. Briefly: Induction of apoptosis in human A549 cells assessed as late apoptotic cells at 0.5 uM measured after 24 hrs by AnnexinV-FITC/propidium iodide staining based flow cytometry method (reference value: 0.12 %). In kind it is functional.
For data set [11], the system named is A549. The data set is described as follows: Induction of apoptosis in human A549 cells assessed as necrotic cells at 3 uM measured after 24 hrs by AnnexinV-FITC/propidium iodide staining based flow cytometry method (reference value: 1.11 %). In kind it is functional.
Data set [12] concerns A549. Briefly: Induction of apoptosis in human A549 cells assessed as necrotic cells at 0.5 uM measured after 24 hrs by AnnexinV-FITC/propidium iodide staining based flow cytometry method (reference value: 1.11 %). In kind it is functional.
In data set [13] the test system is A549. The data set is described as follows: Induction of apoptosis in human A549 cells assessed as late apoptotic cells at 1 uM measured after 24 hrs by AnnexinV-FITC/propidium iodide staining based flow cytometry method (reference value: 0.12 %). It counts as functional.
Data set [14] relates to A549. Briefly: Induction of apoptosis in human A549 cells assessed as early apoptotic cells at 3 uM measured after 24 hrs by AnnexinV-FITC/propidium iodide staining based flow cytometry method (reference value: 0.049 %). In kind it is functional.
Data set [15] concerns A549. The data set is described as follows: Induction of apoptosis in human A549 cells assessed as late apoptotic cells at 3 uM measured after 24 hrs by AnnexinV-FITC/propidium iodide staining based flow cytometry method (reference value: 0.12 %). In kind it is functional.
In data set [16] the test system is A549. Briefly: Induction of cell cycle arrest in human A549 cells assessed as accumulation of G2 phase cells at 3 uM measured for 24 hrs by PI staining based flow cytometric analysis (reference value: 32.4 % ). In kind it is functional.
For data set [17], the system named is A549. Briefly: Induction of apoptosis in human A549 cells assessed as early apoptotic cells at 0.5 uM measured after 24 hrs by AnnexinV-FITC/propidium iodide staining based flow cytometry method (reference value: 0.049 %). In kind it is functional.
In data set [18] the test system is A549. Briefly: Induction of apoptosis in human A549 cells assessed as necrotic cells at 1 uM measured after 24 hrs by AnnexinV-FITC/propidium iodide staining based flow cytometry method (reference value: 1.11 %). In kind it is functional.
Data set [19] relates to A549. Briefly: Induction of cell cycle arrest in human A549 cells assessed as accumulation of S phase cells at 1 uM measured for 24 hrs by PI staining based flow cytometric analysis (reference value: 35.3 % ). It counts as functional.
The test system of data set [20] is A549. The data set is described as follows: Induction of apoptosis in human A549 cells assessed as viable cells at 3 uM measured after 24 hrs by AnnexinV-FITC/propidium iodide staining based flow cytometry method (reference value: 98.7 %). In kind it is functional. To be noted: read-out: Activity.
Data set [21] deals with A549. The data set is described as follows: Induction of cell cycle arrest in human A549 cells assessed as accumulation of G1 phase cells at 1 uM measured for 24 hrs by PI staining based flow cytometric analysis (reference value: 27.5 % ). In kind it is functional.
The test system of data set [22] is A549. The data set is described as follows: Induction of cell cycle arrest in human A549 cells assessed as accumulation of G2 phase cells at 1 uM measured for 24 hrs by PI staining based flow cytometric analysis (reference value: 32.4 % ). It counts as functional.
In data set [23] the test system is A549. Briefly: Induction of apoptosis in human A549 cells assessed as viable cells at 1 uM measured after 24 hrs by AnnexinV-FITC/propidium iodide staining based flow cytometry method (reference value: 98.7 %). In kind it is functional. To be noted: read-out: Activity.
The subject of data set [24] is A549. Briefly: Induction of cell cycle arrest in human A549 cells assessed as accumulation of S phase cells at 3 uM measured for 24 hrs by PI staining based flow cytometric analysis (reference value: 35.3 % ). In kind it is functional.
Data set [25] deals with A549. The data set is described as follows: Induction of cell cycle arrest in human A549 cells assessed as accumulation of S phase cells at 0.5 uM measured for 24 hrs by PI staining based flow cytometric analysis (reference value: 35.3 % ). In kind it is functional.
Data set [26] has as its system A549. Briefly: Induction of cell cycle arrest in human A549 cells assessed as accumulation of G1 phase cells at 3 uM measured for 24 hrs by PI staining based flow cytometric analysis (reference value: 27.5 % ). In kind it is functional.
Data set [27] concerns A549. Briefly: cells. Conditions: Homo sapiens, A549, 72 h.

For orientation: IC50 means the midpoint of a concentration-inhibition curve. By inhibition is commonly meant the percentage by which the read-out fell short of the control.

For `N[C@H](CNC(=O)c1nc(Nc2n[nH]c3ccccc23)c2cc(Cl)ccc2n1)c1ccccc1`, the concentration for half-maximal inhibition (IC50) in data set [1] was 24 nM. For the same molecule, in data set [2], the inhibition was found to be 70%.

As to `Cc1cc(Nc2cc(Cc3ccccc3)nc(NC3CCNCC3)n2)n[nH]1`, in the data set with A549 [3], the IC50 was found to be 2530 nM.

With `C[C@@H](N)CNC(=O)c1nc(Nc2n[nH]c3ccccc23)c2cc(Cl)ccc2n1`, the inhibition in [2] amounted to 35%.

For the molecule `O=C(NCCO)c1nc(Nc2n[nH]c3ccccc23)c2cc(Cl)ccc2n1`, the inhibition in [2] came to 3%.

For `N[C@@H](CNC(=O)c1nc(Nc2n[nH]c3ccccc23)c2cc(Cl)ccc2n1)Cc1ccccc1`, the IC50 in [1] was 11 nM. In data set [2], the inhibition was determined as 75%.

Turning to `C[C@H]1CN(C(=O)c2nc(Nc3n[nH]c4ccccc34)c3cc(Cl)ccc3n2)CCN1`, in [2], the inhibition was 3%.

As to `O=C(NCC1CNC1)c1nc(Nc2n[nH]c3ccccc23)c2cc(Cl)ccc2n1`, in data set [2], the inhibition worked out at 15%.

On to `N[C@@H](CNC(=O)c1nc(Nc2n[nH]c3ccccc23)c2cc(Cl)ccc2n1)c1ccccc1`, for which the IC50 is 13 nM in data set [1] and 1900 nM in the data set with A549 [5]. Also, in data set [2], the inhibition is 78%. Moreover, the IC50 at 24 h in [4] is more than 10000 nM.

In the case of `O=C(NC1CNC1)c1nc(Nc2n[nH]c3ccccc23)c2cc(Cl)ccc2n1`, the inhibition in data set [2] turned out to be 10%.

Regarding `CC(C)[C@H](N)CNC(=O)c1nc(Nc2n[nH]c3ccccc23)c2cc(Cl)ccc2n1`, the half-maximal inhibitory concentration (IC50) in data set [1] was determined as 16 nM. Also, the inhibition in [2] was found to be 76%.

Turning to `CNCCNC(=O)c1nc(Nc2n[nH]c3ccccc23)c2cc(Cl)ccc2n1`, the inhibition in data set [2] was 3%.

As for `CC(C)[C@@H](N)CNC(=O)c1nc(Nc2n[nH]c3ccccc23)c2cc(Cl)ccc2n1`, in the data set with A549 [6], the viability at 0.5 µM amounted to 81.6%. In addition, the Activity with A549 [7] is recorded as 27%; in the data set with A549 [8], 28.9%; in the data set on A549 [9], 34.1%; in the data set on A549 [10], 1.1%; with A549 [11], 4.6%; in the data set with A549 [12], 2.2%. Moreover, the Activity in the data set on A549 [13] stood at 4.83%; with A549 [14], 41%; with A549 [15] it was 3.97%; in the data set on A549 [16] it was 21.9%; with A549 [17] it was 15.1%; in the data set with A549 [18], 3.96%. For the same molecule, the Activity in the data set with A549 [19] was found to be 31.2%; with A549 [21], 45.2%; in the data set on A549 [22] it was 22.7%; with A549 [24], 26%; in the data set with A549 [25], 35%; in the data set on A549 [26], 50.9%. Moreover, the results for the 50% inhibitory concentration (IC50) (in data set [1]; in the data set with A549 [5]) were 10 nM and 610 nM, respectively. The inhibition in data set [2] was 73%. Besides, in [4], the IC50 at 24 h was more than 10000 nM. The viability at 3 µM in the data set on A549 [20] came out at 50.5%. The viability at 1 µM in the data set on A549 [23] was found to be 64.2%.

`CNC[C@@H](C)NC(=O)c1nc(Nc2n[nH]c3ccccc23)c2cc(Cl)ccc2n1`: the inhibition in [2] amounted to 27%.

In the case of `C[C@@H]1CN(C(=O)c2nc(Nc3n[nH]c4ccccc34)c3cc(Cl)ccc3n2)CCN1`, the inhibition in [2] is 10%.

For the molecule `N[C@H](CNC(=O)c1nc(Nc2n[nH]c3ccccc23)c2cc(Cl)ccc2n1)Cc1ccccc1`, the IC50 was determined as 9 nM in data set [1] and 2280 nM in the data set on A549 [5]. Moreover, in data set [2], the inhibition amounted to 77%. In addition, the IC50 at 24 h in [4] is more than 10000 nM.

Regarding `O=C(c1nc(Nc2n[nH]c3ccccc23)c2cc(Cl)ccc2n1)N1CCNCC1`, the inhibition in data set [2] turned out to be 4%.

Regarding `CN(C)CCNC(=O)c1nc(Nc2n[nH]c3ccccc23)c2cc(Cl)ccc2n1`, in data set [2], the inhibition turned out to be 4%.

For the molecule `NCCNC(=O)c1nc(Nc2n[nH]c3ccccc23)c2cc(Cl)ccc2n1`, the inhibition in data set [2] turned out to be 2%.

As to `CN(C)CCCNC(=O)c1nc(Nc2n[nH]c3ccccc23)c2cc(Cl)ccc2n1`, the inhibition in data set [2] stood at 11%.

In the case of `Cc1nc(Nc2n[nH]c3c2CN(C(=O)N[C@H](CN(C)C)c2ccccc2)C3(C)C)c2sccc2n1` [PF-03758309], the inhibition in data set [2] is 81%. In addition, the IC50 at 24 h in data set [4] is more than 10000 nM. Further, the concentration for half-maximal inhibition (IC50) with A549 [27] was found to be 20 nM; in the data set on A549 [5], 670 nM.

Take `C[C@H](N)CNC(=O)c1nc(Nc2n[nH]c3ccccc23)c2cc(Cl)ccc2n1`: in [2], the inhibition was determined as 25%.

Consider `CNC[C@H](C)NC(=O)c1nc(Nc2n[nH]c3ccccc23)c2cc(Cl)ccc2n1`, for which, in data set [2], the inhibition amounted to 3%.

(Values after ChEMBL document CHEMBL5390248, “Design, synthesis and anticancer activity evaluation of 4-(3-1H-indazolyl)amino quinazoline derivatives as PAK4 inhibitors” (Bioorg Med Chem, 2023).)
